From patent US10221177B2 (HYDRA BIOSCIENCES, INC., priority 2014, dated 2019)

molecular target: human TRPA1 (Homo sapiens (Human), UniProt O75762); assay: In vitro inhibition of human TRPA1, whole cell patch configuration; format: cell-based; details: current activation 10 μM AITC, tested concentrations 320 pM to 3.2 μM, read-out: hTRPA1 IC50
Protocol: All currents were recorded in whole-cell configuration using EPC-9 and EPC-10 amplifiers and Patchmaster software (HEKA) or similar. […] The standard bath solution contained 150 mM NaCl, 10 mM HEPES, 10 mM glucose, 4.5 mM KCl, 1 mM EGTA, 3 mM MgCl2, with pH adjusted to 7.4 with NaOH. In some instances, 2 mM CaCl2 was added in place of EGTA and the concentration of MgCl2 was reduced to 1 mM.
Data were collected either by continuous recordings at −60 mV or by applying voltage ramps from a holding potential of −40 mV every 4 s. Continuous recordings were collected at 400 Hz and digitally filtered off-line at 10 Hz for presentation. Voltage ramps were applied from −100 mV or −80 mV to +100 mV or +80 mV over the course of 400 ms, and data were collected at 10 kHz and filtered at 2.9 kHz. Inward and outward currents were analyzed from the ramps at −80 and 80 mV, respectively. Liquid junction potential correction was not used.
Solutions were switched using a gravity-fed continuous focal perfusion system. To achieve rapid temperature changes, two temperature control, and perfusion systems were employed simultaneously. […] Temperatures were confirmed using a thermistor (Warner Instruments, TA-29), with temperatures at the recorded cell estimated to be within +/−2° C. of those reported.
The antagonist effects of compounds of Formula (I) against human TRPA1 (“hTRPA1”) in a whole cell patch configuration were evaluated using the in vitro assay described above.

Sequence of human TRPA1 (O75762 whole entry): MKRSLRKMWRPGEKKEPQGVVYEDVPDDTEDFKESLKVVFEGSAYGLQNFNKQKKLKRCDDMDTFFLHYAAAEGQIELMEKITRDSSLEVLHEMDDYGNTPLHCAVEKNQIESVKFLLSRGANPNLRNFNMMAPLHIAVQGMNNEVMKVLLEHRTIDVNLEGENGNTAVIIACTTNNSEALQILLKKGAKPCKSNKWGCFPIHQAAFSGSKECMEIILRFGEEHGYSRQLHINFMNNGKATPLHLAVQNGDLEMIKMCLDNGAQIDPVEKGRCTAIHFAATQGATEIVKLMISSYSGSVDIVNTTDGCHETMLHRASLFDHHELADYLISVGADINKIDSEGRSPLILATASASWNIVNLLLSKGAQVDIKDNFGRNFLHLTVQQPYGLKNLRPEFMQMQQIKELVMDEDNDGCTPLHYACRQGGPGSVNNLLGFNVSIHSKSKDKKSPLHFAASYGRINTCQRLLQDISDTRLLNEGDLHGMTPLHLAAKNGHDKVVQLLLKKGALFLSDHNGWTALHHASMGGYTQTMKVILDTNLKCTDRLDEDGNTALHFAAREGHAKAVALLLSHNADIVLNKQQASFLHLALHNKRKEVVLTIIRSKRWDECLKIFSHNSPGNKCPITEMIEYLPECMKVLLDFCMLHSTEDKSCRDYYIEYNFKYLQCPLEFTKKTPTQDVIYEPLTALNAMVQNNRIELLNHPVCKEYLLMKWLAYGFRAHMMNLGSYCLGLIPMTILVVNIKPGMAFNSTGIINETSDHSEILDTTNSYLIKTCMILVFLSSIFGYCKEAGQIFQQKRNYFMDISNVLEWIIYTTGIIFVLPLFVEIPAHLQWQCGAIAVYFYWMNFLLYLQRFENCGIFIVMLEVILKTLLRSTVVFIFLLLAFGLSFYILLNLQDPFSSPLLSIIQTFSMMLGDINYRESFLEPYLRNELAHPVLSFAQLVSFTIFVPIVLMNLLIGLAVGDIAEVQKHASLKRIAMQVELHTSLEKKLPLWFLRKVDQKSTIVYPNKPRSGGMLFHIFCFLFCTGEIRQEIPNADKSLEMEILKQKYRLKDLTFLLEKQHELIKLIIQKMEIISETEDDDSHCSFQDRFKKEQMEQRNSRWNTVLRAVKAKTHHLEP

Row | SMILES | IC50
1 | C[C@@H](C(=O)Nc1cncc(-c2cnc(N3CCC[C@H]3C(F)(F)F)nc2)n1)n1cnc2c1c(=O)n(CC#N)c(=O)n2C [Compound 48, (S)-2-(1-(cyanomethyl)-3-methyl-2,6-dioxo-2,3-dihydro-1H-purin-7(6H)-yl)-N-(6-(2-((S)-2-(trifluoromethyl)pyrrolidin-1-yl)pyrimidin-5-yl)pyrazin-2-yl)propanamide] | 7 nM
2 | C[C@@H](C(=O)Nc1ccnc(-c2cnc(N3CCC[C@@H]3C(F)(F)F)nc2)n1)n1cnc2c1c(=O)n(CC#N)c(=O)n2C [Compound 49, (S)-2-(1-(cyanomethyl)-3-methyl-2,6-dioxo-2,3-dihydro-1H-purin-7(6H)-yl)-N-(2′-((R)-2-(trifluoromethyl)pyrrolidin-1-yl)-2,5′-bipyrimidin-4-yl)propanamide] | 7 nM
3 | C[C@@H](C(=O)Nc1csc(-c2cnc(N3CCC[C@@H]3C(F)(F)F)nc2)n1)n1cnc2c1c(=O)n(CC#N)c(=O)n2C [Compound 50] | 4 nM
4 | CCCC(=O)Cn1c(=O)c2c(ncn2[C@@H](C)C(=O)Nc2cccc(-c3cnc(C(F)(F)F)nc3)n2)n(C)c1=O [Compound 52, (S)-2-(3-methyl-2,6-dioxo-1-(2-oxopentyl)-2,3-dihydro-1H-purin-7(6H)-yl)-N-(6-(2-(trifluoromethyl)pyrimidin-5-yl)pyridin-2-yl)propanamide] | 23 nM
5 | Cc1cc(Cn2c(=O)c3c(ncn3[C@@H](C)C(=O)Nc3cncc(-c4cncc(C(F)(F)F)c4)n3)n(C)c2=O)no1 [Compound 55, (S)-2-(3-methyl-1-((5-methylisoxazol-3-yl)methyl)-2,6-dioxo-2,3-dihydro-1H-purin-7(6H)-yl)-N-(6-(5-(trifluoromethyl)pyridin-3-yl)pyrazin-2-yl)propanamide] | 5 nM
6 | CCC(=O)Cn1c(=O)c2c(ncn2[C@@H](C)C(=O)Nc2csc(-c3cnc(N4CC5C(C4)C5(F)F)nc3)n2)n(C)c1=O (stereo partly drawn) [Compound 57, (2S)—N-(2-(2-(6,6-difluoro-3-azabicyclo[3.1.0]hexan-3-yl)pyrimidin-5-yl)thiazol-4-yl)-2-(3-methyl-2,6-dioxo-1-(2-oxobutyl)-2,3-dihydro-1H-purin-7(6H)-yl)propanamide] | 2 nM
7 | COCC(=O)Cn1c(=O)c2c(ncn2[C@@H](C)C(=O)Nc2cccc(-c3cnc(C(F)(F)F)nc3)n2)n(C)c1=O [Compound 59, (S)-2-(1-(3-methoxy-2-oxopropyl)-3-methyl-2,6-dioxo-2,3-dihydro-1H-purin-7(6H)-yl)-N-(6-(2-(trifluoromethyl)pyrimidin-5-yl)pyridin-2-yl)propanamide] | 45 nM
8 | C[C@@H](C(=O)Nc1cncc(-c2cnc(N3CC4C(C3)C4(F)F)nc2)n1)n1cnc2c1c(=O)n(CC#N)c(=O)n2C (stereo partly drawn) [Compound 60, (2S)-2-(1-(cyanomethyl)-3-methyl-2,6-dioxo-2,3-dihydro-1H-purin-7(6H)-yl)-N-(6-(2-(6,6-difluoro-3-azabicyclo[3.1.0]hexan-3-yl)pyrimidin-5-yl)pyrazin-2-yl)propanamide] | 7 nM
9 | CCC(=O)Cn1c(=O)c2c(ncn2[C@@H](C)C(=O)Nc2ccnc(-c3cnc(N4CC5C(C4)C5(F)F)nc3)n2)n(C)c1=O (stereo partly drawn) [Compound 62, (2S)—N-(2′-(6,6-difluoro-3-azabicyclo[3.1.0]hexan-3-yl)-[2,5′-bipyrimidin]-4-yl)-2-(3-methyl-2,6-dioxo-1-(2-oxobutyl)-2,3-dihydro-1H-purin-7(6H)-yl)propanamide] | 5 nM
10 | CC(=O)Cn1c(=O)c2c(ncn2[C@@H](C)C(=O)Nc2csc(-c3ccc(N4CC5CC5C4)nc3)n2)n(C)c1=O (stereo partly drawn) [Compound 63, (2S)—N-(2-(6-(3-azabicyclo[3.1.0]hexan-3-yl)pyridin-3-yl)thiazol-4-yl)-2-(3-methyl-2,6-dioxo-1-(2-oxopropyl)-2,3-dihydro-1H-purin-7(6H)-yl)propanamide] | 2 nM
11 | C[C@@H](C(=O)Nc1csc(-c2ccc(N3CC4CC4C3)nc2)n1)n1cnc2c1c(=O)n(CC#N)c(=O)n2C (stereo partly drawn) [Compound 64, (2S)—N-(2-(6-(3-azabicyclo[3.1.0]hexan-3-yl)pyridin-3-yl)thiazol-4-yl)-2-(1-(cyanomethyl)-3-methyl-2,6-dioxo-2,3-dihydro-1H-purin-7(6H)-yl)propanamide] | 2 nM
12 | C[C@@H](C(=O)Nc1csc(-c2ccc(N3CC4CC4C3)nc2)n1)n1cnc2c1c(=O)n(CC#N)c(=O)n2C (stereo partly drawn) [Compound 66, (2S)—N-(2-(6-(3-azabicyclo[3.1.0]hexan-3-yl)pyridin-3-yl)thiazol-4-yl)-2-(1-(cyanomethyl)-3-methyl-2,6-dioxo-2,3-dihydro-1H-purin-7(6H)-yl)propanamide] | 2 nM

Now from value to molecule:

Row | IC50 | SMILES
13 | > 3200 nM | C[C@@H](C(=O)Nc1cccc(-c2cnc(C(F)(F)F)nc2)n1)n1cnc2c1c(=O)n(CC1COC1)c(=O)n2C [Compound 51, (S)-2-(3-methyl-1-(oxetan-3-ylmethyl)-2,6-dioxo-2,3-dihydro-1H-purin-7(6H)-yl)-N-(6-(2-(trifluoromethyl)pyrimidin-5-yl)pyridin-2-yl)propanamide]
14 | 14 nM | C[C@@H](C(=O)Nc1ccnc(-c2ccc(N3CC4CC4C3)nc2)n1)n1cnc2c1c(=O)n(CC#N)c(=O)n2C (stereo partly drawn) [Compound 53, (2S)—N-(2-(6-(3-azabicyclo[3.1.0]hexan-3-yl)pyridin-3-yl)pyrimidin-4-yl)-2-(1-(cyanomethyl)-3-methyl-2,6-dioxo-2,3-dihydro-1H-purin-7(6H)-yl)propanamide]
15 | 7 nM | C[C@@H](C(=O)Nc1ccnc(-c2cnc(N3CCC[C@H]3C(F)(F)F)nc2)n1)n1cnc2c1c(=O)n(CC#N)c(=O)n2C [Compound 54, (S)-2-(1-(cyanomethyl)-3-methyl-2,6-dioxo-2,3-dihydro-1H-purin-7(6H)-yl)-N-(2′-((S)-2-(trifluoromethyl)pyrrolidin-1-yl)-2,5′-bipyrimidin-4-yl)propanamide]
16 | 3 nM | CC(=O)Cn1c(=O)c2c(ncn2[C@@H](C)C(=O)Nc2csc(-c3cnc(N4CC5C(C4)C5(F)F)nc3)n2)n(C)c1=O (stereo partly drawn) [Compound 56, (2S)—N-(2-(2-(6,6-difluoro-3-azabicyclo[3.1.0]hexan-3-yl)pyrimidin-5-yl)thiazol-4-yl)-2-(3-methyl-2,6-dioxo-1-(2-oxopropyl)-2,3-dihydro-1H-purin-7(6H)-yl)propanamide]
17 | 2 nM | C[C@@H](C(=O)Nc1csc(-c2cnc(N3CC4C(C3)C4(F)F)nc2)n1)n1cnc2c1c(=O)n(CC#N)c(=O)n2C (stereo partly drawn) [Compound 58, (2S)-2-(1-(cyanomethyl)-3-methyl-2,6-dioxo-2,3-dihydro-1H-purin-7(6H)-yl)-N-(2-(2-(6,6-difluoro-3-azabicyclo[3.1.0]hexan-3-yl)pyrimidin-5-yl)thiazol-4-yl)propanamide]
18 | 8 nM | CC(=O)Cn1c(=O)c2c(ncn2[C@@H](C)C(=O)Nc2cccc(-c3ccc(N4CC5C(C4)C5(F)F)nc3)n2)n(C)c1=O (stereo partly shown) [Compound 65]
19 | 7 nM | C[C@@H](C(=O)Nc1ccnc(-c2cnc(N3CC4C(C3)C4(F)F)nc2)n1)n1cnc2c1c(=O)n(CC#N)c(=O)n2C (stereo partly drawn) [Compound 67, (2S)-2-(1-(cyanomethyl)-3-methyl-2,6-dioxo-2,3-dihydro-1H-purin-7(6H)-yl)-N-(2′-(6,6-difluoro-3-azabicyclo[3.1.0]hexan-3-yl)-[2,5′-bipyrimidin]-4-yl)propanamide]
